Reference: BigSolDB 2.1

Cc1[nH]nc2cc([N+](=O)[O-])ccc12
solubility (mole fraction) (in ethanol, 278.15 K): 0.00471
solubility (mole fraction) (in ethanol, 283.15 K): 0.00539
solubility (mole fraction) (in ethanol, 288.15 K): 0.00619
solubility (mole fraction) (in ethanol, 293.15 K): 0.0073
solubility (mole fraction) (in ethanol, 298.15 K): 0.00866
solubility (mole fraction) (in ethanol, 303.15 K): 0.0102
solubility (mole fraction) (in ethanol, 308.15 K): 0.0118
solubility (mole fraction) (in ethanol, 313.15 K): 0.0137
solubility (mole fraction) (in ethanol, 318.15 K): 0.016
solubility (mole fraction) (in ethanol, 323.15 K): 0.019
solubility (mole fraction) (in ethanol, 328.15 K): 0.022
solubility (mole fraction) (in n-propanol, 278.15 K): 0.0051
solubility (mole fraction) (in n-propanol, 283.15 K): 0.00574
solubility (mole fraction) (in n-propanol, 288.15 K): 0.00682
solubility (mole fraction) (in n-propanol, 293.15 K): 0.00793
solubility (mole fraction) (in n-propanol, 298.15 K): 0.00901
solubility (mole fraction) (in n-propanol, 303.15 K): 0.0103
solubility (mole fraction) (in n-propanol, 308.15 K): 0.0118
solubility (mole fraction) (in n-propanol, 313.15 K): 0.0133
solubility (mole fraction) (in n-propanol, 318.15 K): 0.0149
solubility (mole fraction) (in n-propanol, 323.15 K): 0.017
solubility (mole fraction) (in n-propanol, 328.15 K): 0.0194
solubility (mole fraction) (in water, 278.15 K): 2.06e-05
solubility (mole fraction) (in water, 283.15 K): 2.7e-05
solubility (mole fraction) (in water, 288.15 K): 3.52e-05
solubility (mole fraction) (in water, 293.15 K): 4.67e-05
solubility (mole fraction) (in water, 298.15 K): 6.15e-05
solubility (mole fraction) (in water, 303.15 K): 7.91e-05
solubility (mole fraction) (in water, 308.15 K): 9.98e-05
solubility (mole fraction) (in water, 313.15 K): 0.000123
solubility (mole fraction) (in water, 318.15 K): 0.000151
solubility (mole fraction) (in water, 323.15 K): 0.000182
solubility (mole fraction) (in water, 328.15 K): 0.000222
